The target in one assay is T1, HIV-1 Protease (Human immunodeficiency virus type 1 group M subtype B, UniProt P04585).
T1 construct: HIV-1 Protease
The assay can be described thus: biochemical. The following applies: for IC50: read-out: Fluorescence Assay IC50 (converted); for inhibition at 0.00016 µg/mL: at 0.16 ng/mL, lowest testable concentration, read-out: % inhibition at the stated concentration (ICx (0.16)). As to the method: These compounds may be assayed using two assays: (1) an enzyme inhibition assay, and (2) an antiviral cell culture assay.
This assay is described in detail in published European Patent Application (EPA) 0 526 009, herein incorporated by reference. Using this assay, a number of the compounds, prepared above, were assayed for HIV protease inhibitory activity.
The assay is unable to test compounds at less than a concentration of 0.16 ng/mL.

Another assay deals with HIV. As to the kind of experiment: microbe, parasite or virus in culture. The format is cell-based. The following applies: XTT, 450 nm, * (n) = average of n assays, read-out: Antiviral Activity IC90. The protocol:
In addition, the compounds described in the present application may be tested using an antiviral cell culture assay as described in Weislow, O.S., J. of National Cancer Institute, 81(8), pages 577-586 (Apr. 19, 1989) herein incorporated by reference.
This assay compares the viability of HIV-infected cells in a cell culture medium relative to the viability of such cells in the presence of a test compound. The concentration of test compound necessary to inhibit 90% of the virus is then measured using the viability of the cells as an indicator of viral inhibition. This assay is carried out using cell lines that are sensitive to the lyric effects of HIV infection.
Specifically, this assay utilizes the metabolic reduction of a tetrazolium reagent, 2,3-bis[2-methoxy-4-nitro-5-sulfophenyl]-5-[(phenylamino)carbonyl]-2H-tetrazolium hydroxide (XTT). In the presence of a viable cell, the tetrazolium reagent, XTT, is reduced to provide XTT formazan which may be quantified using colorimetric determination (at 450 nm). The intensity of the chromogenic signal is directly proportional to the concentration of the XTT formazan, thus providing a measure of the quantity of viable cells.
In general terms: Formazan colour is commonly taken as a measure of viable cells.

The mark [1] stands for this setting: Human immunodeficiency virus 1, concentration inhibiting 90% of the viral-induced toxicity.
Where [2] appears, read: concentration inhibiting 50% of the enzyme, * = calculated average with n number of assays.
Setting [3] is: concentration inhibiting 90% of the viral-induced toxicity.

Like-named read-outs stand apart in the source and are kept apart here.

For the compound `CC(C)(C)NC(=O)[C@@H]1C[C@@H]2SCC[C@@H]2CN1C[C@@H](O)[C@H](CSc1ccccc1)NC(=O)[C@@H](CS(=O)(=O)c1ccc(F)cc1)NC(=O)C(F)(F)F` [Example 29, N-t-Butyl-octahydro-5[2R-hydroxy-3R-phenylthiomethyl-4-aza-5-oxo-6S-N(trifluoromethylcarbonyl)amino-7-p-fluorophenylsulfonyl-heptyl]-(3aR,7aS)-thieno[3,2-c]pyridine-(6S)-carboxamide], on HIV-1 Protease, the IC50 (as a rule, the point on the concentration scale where inhibition reaches its midpoint) is 0.0111 µM. Moreover, the 90% effect concentration (IC90) (commonly the point of the concentration-response curve where the effect stands at 90%) in the assay on HIV (setting [1]) is 0.754 µM.
With `CC(C)[C@H]1SCC[C@H]1OC(=O)N[C@@H](CSc1ccccc1)[C@H](O)CN1C[C@H]2CCS[C@H]2C[C@H]1C(=O)NC(C)(C)C` [9B-24 mg sample], the inhibition at 0.00016 µg/mL at HIV-1 Protease is 53%. In addition, the IC90 in the assay on HIV (setting [1]) is 0.078 µM.
Regarding `CC(C)[C@@H]1SCC[C@@H]1OC(=O)N[C@@H](CSc1ccccc1)[C@H](O)CN1C[C@H]2CCS[C@H]2C[C@H]1C(=O)NC(C)(C)C` [9B-23 mg sample], the IC50 on HIV-1 Protease (setting [2]) is 0.00262 µM. Besides, in the assay on HIV (setting [1]), the IC90 came out at 0.604 µM.
The matching figures for `CC(C)(C)NC(=O)[C@@H]1C[C@@H]2SCC[C@@H]2CN1C[C@@H](O)[C@H](CSc1ccccc1)NC(=O)O[C@@H]1CCS(=O)(=O)C1` [11C-11 mg sample]: 0.00152 µM and 0.026 µM.
In the case of `CC(C)[C@H]1[C@@H](OC(=O)N[C@@H](CSc2ccccc2)[C@H](O)CN2C[C@H]3CCS[C@H]3C[C@H]2C(=O)NC(C)(C)C)CCS1(=O)=O` [10B-51 mg sample], on HIV-1 Protease, the IC50 is 0.00095 µM. Moreover, in the assay on HIV (setting [1]), the IC90 came to 0.077 µM.
On the same counts, the results for `C[C@H]1[C@H](OC(=O)N[C@@H](CSc2ccccc2)[C@H](O)CN2C[C@H]3CCS[C@H]3C[C@H]2C(=O)NC(C)(C)C)CCS1(=O)=O` [34-Fraction B] are 0.0274 µM and 0.0321 µM.
For the compound `C[C@@H]1[C@H](OC(=O)N[C@@H](CSc2ccccc2)[C@H](O)CN2C[C@H]3CCS[C@H]3C[C@H]2C(=O)NC(C)(C)C)CCS1(=O)=O` [Example 38D, N-t-Butyl-octahydro-5[2R-hydroxy-3R-N(1',1'-dioxo-2'R-methyl-tetrahydrothiophen-3'R-yloxycarbonyl)amino-4-phenylthio)-butyl]-(3aR,7aS)-thieno[3,2c] pyridine-(6S)-carboxamide methanesulfonate], the IC50 on HIV-1 Protease is 0.00728 µM. For the same compound, the IC90 in the assay with HIV (setting [3]) was 0.0071 µM.
`CC(C)[C@@H]1[C@H](OC(=O)N[C@@H](CSc2ccccc2)[C@H](O)CN2C[C@H]3CCS[C@H]3C[C@H]2C(=O)NC(C)(C)C)CCS1(=O)=O` [Example 40D, N-t-Butyl-octahydro-5[2R-hydroxy-3R-N(1',1'-dioxo-2'R-isopropyl-tetrahydrothiophen-3'R-yloxycarbonyl)amino-4-phenylthio-)-butyl]-(3aR,7aS)-thieno[3,2-c] pyridine-(6S)-carboxamide methanesulfonate]: the 90% effect concentration (IC90) in the assay with HIV (setting [1]) came out at 0.0071 µM.
As for `CC(C)(C)NC(=O)[C@@H]1C[C@@H]2SCC[C@@H]2CN1C[C@@H](O)[C@H](CSc1ccccc1)NC(=O)[C@@H](CS(=O)(=O)c1ccc2ccccc2c1)NC(=O)C(F)(F)F` [Example 30B, N-t-Butyl-octahydro-5[2R-hydroxy-3R-phenylthiomethyl-4-aza-5-oxo-6S-N(trifluoromethylcarbonyl)amino-7-naphth-2-ylsulfonyl-heptyl]-(3aR,7aS)-thieno[3,2-c]pyridine-(6S)-carboxamide], the IC50 on HIV-1 Protease is 0.00196 µM. For the same compound, the 90% effect concentration (IC90) with HIV (setting [1]) is 0.203 µM.
For `C[C@H]1[C@@H](OC(=O)N[C@@H](CSc2ccccc2)[C@H](O)CN2C[C@H]3CCS[C@H]3C[C@H]2C(=O)NC(C)(C)C)CCS1(=O)=O` [31D-Fraction B], the concentration for an effect of 90% (IC90) with HIV (setting [3]) stood at 0.0314 µM.
Consider `C[C@@H]1[C@@H](OC(=O)N[C@@H](CSc2ccccc2)[C@H](O)CN2C[C@H]3CCS[C@H]3C[C@H]2C(=O)NC(C)(C)C)CCS1(=O)=O` [34-Fraction A], for which the IC50 on HIV-1 Protease was 0.00728 µM. Also, the concentration for an effect of 90% (IC90) in the assay with HIV (setting [1]) was 0.0452 µM.
The matching figures for `CC(C)(C)NC(=O)[C@@H]1C[C@@H]2SCC[C@@H]2CN1C[C@@H](O)[C@H](Cc1ccccc1)NC(=O)[C@@H](CS(=O)(=O)c1cccc2cccnc12)NS(C)(=O)=O` [Example 26, N-t-Butyl-octahydro-5[2R-hydroxy-3S-phenylmethyl-4-aza-5-oxo-6S-N(methylsulfonyl)amino-7-quinolin-8-ylsulfonyl-heptyl]-(3aR,7aS)-thieno[3,2-c]pyridine-(6S)-carboxamide]: 0.000389 µM and 0.225 µM.
Take `CC(C)(C)NC(=O)[C@@H]1C[C@@H]2SCC[C@@H]2CN1C[C@@H](O)[C@H](CSc1ccccc1)NC(=O)[C@H](CC(N)=O)NC(=O)c1ccc2ccccc2n1` [Example 14C]: in the assay on HIV (setting [1]), the IC90 is 0.028 µM.
As to `CC(=O)N[C@H](CS(=O)(=O)c1cccc2cccnc12)C(=O)N[C@@H](Cc1ccccc1)[C@H](O)CN1C[C@H]2CCS[C@H]2C[C@H]1C(=O)NC(C)(C)C` [Example 25, N-t-Butyl-octahydro-5[2R-hydroxy-3S-phenylmethyl-4-aza-5-oxo-6S-N(acetyl)amino-7-quinolin-8-ylsulfonyl-heptyl]-(3aR,7aS)-thieno[3,2-c]pyridine-(6S)-carboxamide], the IC50 at HIV-1 Protease was 0.000239 µM. Also, the IC90 in the assay on HIV (setting [1]) came out at 0.279 µM.
For `C[C@@H]1[C@H](OC(=O)N[C@@H](CSc2ccccc2)[C@H](O)CN2C[C@H]3CCS[C@H]3C[C@H]2C(=O)NC(C)(C)C)CCS1(=O)=O` [31D-Fraction A], the concentration for an effect of 90% (IC90) with HIV (setting [3]) stood at 0.0303 µM.
As for `C[C@H]1[C@@H](OC(=O)N[C@@H](CSc2ccccc2)[C@H](O)CN2C[C@H]3CCS[C@H]3C[C@H]2C(=O)NC(C)(C)C)CCS1(=O)=O` [Example 37D, N-t-Butyl-octahydro-5[2R-hydroxy-3R-N(1',1'-dioxo-2'S-methyl-tetrahydrothiophen-3'S-yloxycarbonyl)amino-4-phenylthio)-butyl]-(3aR,7aS)-thieno[3,2-c] pyridine-(6S)-carboxamide methanesulfonate], on HIV-1 Protease, the 50% inhibitory concentration (IC50) is 0.000358 µM. Further, the IC90 in the assay on HIV (setting [3]) amounted to 0.0018 µM.
In the case of `C[C@H]1OCC[C@H]1OC(=O)N[C@@H](CSc1ccccc1)[C@H](O)CN1C[C@H]2CCS[C@H]2C[C@H]1C(=O)NC(C)(C)C` [13B-17 mg sample], the half-maximal inhibitory concentration (IC50) on HIV-1 Protease is 0.00272 µM. Further, the IC90 with HIV (setting [1]) stood at 0.88 µM.
As to `CC(C)(C)NC(=O)[C@@H]1C[C@@H]2SCC[C@@H]2CN1C[C@@H](O)[C@H](Cc1ccccc1)NC(=O)[C@@H](CS(=O)(=O)c1ccc2ccccc2c1)NS(C)(=O)=O` [Example 17B, N-t-Butyl-octahydro-5[2R-hydroxy-3S-phenylmethyl-4-aza-5-oxo-6S-N(methylsulfonyl)amino-7-naphth-2-ylsulfonyl-heptyl]-(3aR,7aS)-thieno[3,2-c]pyridine-(6S)-carboxamide], at HIV-1 Protease, the inhibition at 0.00016 µg/mL was determined as 60%. Besides, the IC90 with HIV (setting [1]) was found to be 0.078 µM.
On to `CC(C)(C)NC(=O)[C@@H]1C[C@@H]2SCC[C@@H]2CN1C[C@@H](O)[C@H](CSc1ccccc1)NC(=O)O[C@H]1CCS(=O)(=O)C1` [11C-6 mg sample], for which the IC50 on HIV-1 Protease (setting [2]) was 0.002 µM. Besides, in the assay with HIV (setting [1]), the IC90 is 0.029 µM.
As for `CC(C)(C)NC(=O)[C@@H]1C[C@@H]2SCC[C@@H]2CN1C[C@@H](O)[C@H](Cc1ccccc1)NC(=O)[C@@H](CS(=O)(=O)c1ccc2ccccc2c1)NC(=O)C(F)(F)F` [Example 17C, N-t-Butyl-octahydro-5[2R-hydroxy-3S-phenylmethyl-4-aza-5-oxo-6S-N(trifluoromethylcarbonyl)amino-7-naphth-2-ylsulfonyl-heptyl]-(3aR,7aS)-thieno[3,2-c]pyridine-(6S)-carboxamide], on HIV-1 Protease, the inhibition at 0.00016 µg/mL is 76%. Besides, in the assay on HIV (setting [1]), the IC90 was 0.031 µM.
Take `CC(C)[C@@H]1[C@H](OC(=O)N[C@@H](CSc2ccccc2)[C@H](O)CN2C[C@H]3CCS[C@H]3C[C@H]2C(=O)NC(C)(C)C)CCS1(=O)=O` [10B-52 mg sample]: the IC50 on HIV-1 Protease is 0.000421 µM. Besides, the concentration for an effect of 90% (IC90) in the assay on HIV (setting [1]) was 0.009 µM.
In the case of `CC(C)(C)NC(=O)[C@@H]1C[C@@H]2SCC[C@@H]2CN1C[C@@H](O)[C@H](Cc1ccccc1)NC(=O)[C@@H](CS(=O)(=O)c1cccc2cccnc12)NC(=O)C(F)(F)F` [Example 24B, N-t-Butyl-octahydro-5[2R-hydroxy-3S-phenylmethyl-4-aza-5-oxo-6S-N(trifluoromethylcarbonyl)amino-7-quinolin-8-ylsulfonyl-heptyl]-(3aR,7aS)-thieno[3,2-c]pyridine-(6S)-carboxamide], in the assay on HIV (setting [1]), the concentration for an effect of 90% (IC90) was determined as 0.0818 µM.

Values taken from patent publication US5480887A, “Protease inhibitors” (Eli Lilly and Company, priority 1994, dated 1996).
